Results: US20120046301A1, “Substituted Cyclic Carboxamide and Urea Derivatives as Ligands of the Vanilloid Receptor” (Gruenenthal GmbH, priority 2010, published 2012)

Experiments:
male mice (NMRI) = experiment: Formalin test on mice (second phase); format: in vivo
Protocol: The investigation to determine the antinociceptic action of the compounds according to the invention is carried out in the formalin test on male mice (NMRI, 20 bis 30 g body weight, Iffa, Credo, Belgium).
According to D. Dubuisson et al., Pain 1977, 4, 161-174, in the formalin test the first (early) phases ([…] after the formalin injection) and the second (late) phase (15 to 60 minutes after the formalin injection) are different. The early phase, which is a direct reaction to the formalin injection, represents a model of acute pain, whereas the late phase is regarded as a model of persistent (chronic) pain (T. J. Coderre et al., Pain 1993, 52, 259-285). The corresponding literature descriptions are hereby incorporated by way of reference and count as part of the disclosure.
The compounds according to the invention are investigated in the second phase of the formalin test, in order to obtain information on the effects of substances on chronic/inflammation pain.
The administration time of the compounds according to the invention before the formalin injection is selected depending on the type of administration of the compounds according to the invention. The intravenous administration of 10 mg/kg body weight of the test substances is carried out 5 minutes before the formalin injection. […]
The nociceptive behaviour is then continuously assessed by observing the animals for an investigation period of 3 minutes in the (second) late phase of the formalin test (21 to 24 minutes after the formalin injection). The pain behaviour is quantified by counting the time in seconds during which the animals licked and bit the affected paw during the investigation period.
The comparison is made in each case with control animals, which receive instead of the compounds according to the invention a neutral vehicle (0.9% aqueous sodium chloride solution) before the formalin injection. Based on the quantification of the pain behaviour, the effect of the substance in the formalin test is measured as the change compared to the corresponding control. […]

[1] = biological target: T1, vanilloid receptor 1 (VR1/TRPV1 receptor) (Homo sapiens, UniProt Q8NER1); experiment: FLIPR assay, CHO K1 cells transfixed with the human VR1 gene, displacement of capsaicin (Pharmacological Method II); format: cell-based; conditions: capsaicin (Cap) 100 nM, Ki from IC50 by Cheng-Prusoff
T1 construct: expressed in transfected cells; host or cells: CHO K1 cells (ECACC), stably transfected
Protocol: In addition compounds according to the invention of the general formula (I) may be preferred, that in the FLIPR assay with CHO K1 cells that have been transfixed with the human VR1 gene effect in a concentration of less than 2000 nM, preferably less than 1000 nM, particularly preferably less than 300 nM, most particularly preferably less than 100 nM, even more preferably less than 75 nM, still most preferably less than 50 nM, and most of all preferably less than 10 nM, a 50% displacement of capsaicin that is present in a concentration of 100 nM.
In this connection the Ca^2+ inflow is quantified in the FLIPR assay with the aid of a Ca^2+-sensitive dye (Type Fluo-4, Molecular Probes Europe BV, Leiden, Netherlands) in a fluorescent imaging plate reader (FLIPR, Molecular Devices, Sunnyvale, USA), as described hereinafter.
The agonistic and antagonistic action of the substances to be investigated on the vanilloid receptor (VR1) can also be determined with the following assay. According to this assay the Ca^2+ inflow through the channel is quantified in the Fluorescent Imaging Plate Reader (FLIPR, Molecular Devices, Sunnyvale, USA) with the aid of a Ca^2+ sensitive dye (Type Fluo-4, Molecular Probes, Europe BV, Leiden, Netherlands).
Chinese hamster ovary cells (CHO K1 cells, European Collection of Cell Cultures (ECACC) Great Britain) are stably transfixed with the VR1 gene. For the functional investigations these cells are plated out on poly-D-lysine-coated, black 96-well plates with a clear floor (BD Biosciences, Heidelberg, Germany) in a density of 25,000 cells/well. The cells are incubated overnight at 37° C. and 5% CO2 in a culture medium (Nutrient Mixture ‘am's F12, 10 Vol % FCS (fetal calf serum), 18 μg/ml L-proline. The following day the cells are incubated with Fluo-4 (Fluo-4 2 μM, Pluronic F127 0.01 Vol %, Molecular Probes in HBSS (Hank's buffered saline solution), Gibco Invitrogen GmbH, Karlsruhe, Germany) for 30 minutes at 37° C. The plates are then washed 3 times with HBSS buffer and, after a further incubation for 15 minutes at RT, used in the FLIPR assay for the Ca^2+ measurement. The Ca^2+-dependent fluorescence is in this connection measured both before and after addition of the substances to be investigated (wavelength λex=488 nm, λem=540 nm). The quantification is carried out by measuring the highest fluorescence intensity (FC, Fluorescence Counts) over time.
The FLIPR protocol consists of 2 additions of substances. First of all the compounds to be tested (10 μM) are pipetted onto the cells and the Ca^2+ inflow is compared with the control (capsaicin 10 μM) (% activation referred to the Ca^2+ signal after addition of 10 μM capsaicin). After 5 minutes' incubation 100 nM capsaicin are added and the inflow of Ca^2+ is again determined.
Desensitising agonists and antagonists lead to a suppression of the Ca^2+ inflow. The % inhibition compared to the maximum achievable inhibition with 10 μM capsaicin is calculated.
Starting from the percentage displacement caused by different concentrations of the compounds of the general formula I to be tested, IC50 inhibiting concentrations that produce a 50% displacement of capsaicin were calculated. K, values for the test substances were obtained by reconversion using the (Cheng, Prusoff; Biochem. Pharmacol. 22, 3099-3108, 1973) relationship.

T1 sequence (Q8NER1 whole entry): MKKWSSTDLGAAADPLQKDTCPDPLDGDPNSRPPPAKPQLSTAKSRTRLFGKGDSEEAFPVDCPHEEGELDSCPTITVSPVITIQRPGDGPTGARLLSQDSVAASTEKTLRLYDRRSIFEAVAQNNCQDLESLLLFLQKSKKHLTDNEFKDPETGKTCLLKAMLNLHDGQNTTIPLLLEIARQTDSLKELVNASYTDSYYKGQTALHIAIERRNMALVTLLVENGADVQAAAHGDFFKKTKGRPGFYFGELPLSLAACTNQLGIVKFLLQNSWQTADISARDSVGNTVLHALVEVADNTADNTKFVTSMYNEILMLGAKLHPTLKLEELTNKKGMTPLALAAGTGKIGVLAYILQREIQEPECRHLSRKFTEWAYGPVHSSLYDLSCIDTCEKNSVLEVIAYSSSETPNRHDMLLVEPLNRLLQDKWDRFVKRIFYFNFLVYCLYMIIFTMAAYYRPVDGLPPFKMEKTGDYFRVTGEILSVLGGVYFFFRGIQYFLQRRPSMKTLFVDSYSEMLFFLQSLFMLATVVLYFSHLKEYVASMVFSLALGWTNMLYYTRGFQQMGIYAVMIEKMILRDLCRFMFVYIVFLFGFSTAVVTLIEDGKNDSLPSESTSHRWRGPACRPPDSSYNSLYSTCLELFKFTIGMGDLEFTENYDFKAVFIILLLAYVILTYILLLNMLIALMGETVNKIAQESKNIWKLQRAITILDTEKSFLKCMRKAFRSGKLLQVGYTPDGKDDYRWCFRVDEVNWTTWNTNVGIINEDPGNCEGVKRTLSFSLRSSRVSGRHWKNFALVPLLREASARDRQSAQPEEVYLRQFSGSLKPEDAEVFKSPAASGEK

Row | Compound | Ki [1] | other results
1 | CC(C)(C)c1cc(CNC(=O)N2CCN(c3ncccc3Cl)CC2)n(-c2cccc(Cl)c2)n1 [Example 2, N-((3-tert-butyl-1-(3-chlorophenyl)-1H-pyrazol-5-yl)methyl)-4-(3-chloropyridin-2-yl)piperazine-1-carboxamide] | 10 nM | FTm, p.o. % effect @ dose (mg/kg) (male mice (NMRI); dose 10.0 mg/kg): 1% @10.0; FTm, p.o. % effect @ dose (mg/kg) (male mice (NMRI); dose 30.0 mg/kg): 36% @30.0; FTm, p.o. % effect @ dose (mg/kg) (male mice (NMRI); dose 100.0 mg/kg): 66% @100.0
2 | O=C(NCc1cc(C(F)(F)F)nn1-c1cccc(Cl)c1)N1CCN(c2ncccc2Cl)CC1 [Example 3, N-((1-(3-chlorophenyl)-3-(trifluoromethyl)-1H-pyrazol-5-yl)methyl)-4-(3-chloropyridin-2-yl)piperazine-1-carboxamide] | 14 nM | –
3 | CC(C)(C)c1cc(CNC(=O)N2CCN(c3ccccc3F)CC2)n(-c2cccc(Cl)c2)n1 [Example 5, N-((3-tert-butyl-1-(3-chlorophenyl)-1H-pyrazol-5-yl)methyl)-4-(2-fluorophenyl)piperazine-1-carboxamide] | 5 nM | –
4 | Cc1c(C(F)(F)F)nn(-c2cccc(Cl)c2)c1CNC(=O)N1CCN(c2ncccc2Cl)CC1 [Example 9, N-((1-(3-chlorophenyl)-4-methyl-3-(trifluoromethyl)-1H-pyrazol-5-yl)methyl)-4-(3-chloropyridin-2-yl)piperazine-1-carboxamide] | 16 nM | –
5 | O=C(NCc1cc(C2CC2)nn1-c1cccc(Cl)c1)N1CCN(c2ncccc2Cl)CC1 [Example 10, N-((1-(3-chlorophenyl)-3-cyclopropyl-1H-pyrazol-5-yl)methyl)-4-(3-chloropyridin-2-yl)piperazine-1-carboxamide] | 85 nM | –
6 | CCCCCn1nc(C(F)(F)F)cc1CNC(=O)N1CCN(c2ncccc2Cl)CC1 [Example 12, 4-(3-chloropyridin-2-yl)-N-((1-pentyl-3-(trifluoromethyl)-1H-pyrazol-5-yl)methyl)piperazine-1-carboxamide] | 68 nM | –
7 | O=C(NCc1cc(C(F)(F)F)nn1-c1cccc(Cl)c1)N1CCC(c2ccccc2)CC1 [Example 26, N-((1-(3-chlorophenyl)-3-(trifluoromethyl)-1H-pyrazol-5-yl)methyl)-4-phenylpiperidine-1-carboxamide] | 27 nM | –
8 | O=C(NCc1cc(C(F)(F)F)nn1-c1cccc(Cl)c1)N1CC=C(c2ccc(F)cc2)CC1 [Example 34, N-((1-(3-chlorophenyl)-3-(trifluoromethyl)-1H-pyrazol-5-yl)methyl)-4-(4-fluorophenyl)-5,6-dihydropyridine-1(2H)-carboxamide] | 27 nM | –
9 | O=C(NCc1cc(C(F)(F)F)nn1-c1cccc(Cl)c1)N1CCN(c2ccccc2F)CC1 [Example 46, N-((1-(3-chlorophenyl)-3-(trifluoromethyl)-1H-pyrazol-5-yl)methyl)-4-(2-fluorophenyl)piperazine-1-carboxamide] | 45 nM | –
10 | O=C(NCc1cc(C(F)(F)F)nn1-c1cccc(Cl)c1)N1CCN(c2ccc(F)cc2)CC1 [Example 47, N-((1-(3-chlorophenyl)-3-(trifluoromethyl)-1H-pyrazol-5-yl)methyl)-4-(4-fluorophenyl)piperazine-1-carboxamide] | 48 nM | –
11 | COc1ccccc1N1CCN(C(=O)NCc2cc(C(F)(F)F)nn2-c2cccc(Cl)c2)CC1 [Example 48, N-((1-(3-chlorophenyl)-3-(trifluoromethyl)-1H-pyrazol-5-yl)methyl)-4-(2-methoxyphenyl)piperazine-1-carboxamide] | 61 nM | –
12 | COc1cccc(N2CCN(C(=O)NCc3cc(C(F)(F)F)nn3-c3cccc(Cl)c3)CC2)c1 [Example 49, N-((1-(3-chlorophenyl)-3-(trifluoromethyl)-1H-pyrazol-5-yl)methyl)-4-(3-methoxyphenyl)piperazine-1-carboxamide] | 35 nM | –
13 | COc1ccc(N2CCN(C(=O)NCc3cc(C(F)(F)F)nn3-c3cccc(Cl)c3)CC2)cc1 [Example 50, N-((1-(3-chlorophenyl)-3-(trifluoromethyl)-1H-pyrazol-5-yl)methyl)-4-(4-methoxyphenyl)piperazine-1-carboxamide] | 63 nM | –
14 | O=C(NCc1cc(C(F)(F)F)nn1-c1cccc(Cl)c1)N1CCN(c2ccccc2Cl)CC1 [Example 51, 4-(2-chlorophenyl)-N-((1-(3-chlorophenyl)-3-(trifluoromethyl)-1H-pyrazol-5-yl)methyl)piperazine-1-carboxamide] | 7 nM | –
15 | CC(C)(C)c1cc(CNC(=O)N2CCN(c3cccc(Cl)c3)CC2)n(-c2cccc(Cl)c2)n1 [Example 52, N-((3-tert-butyl-1-(3-chlorophenyl)-1H-pyrazol-5-yl)methyl)-4-(3-chlorophenyl)piperazine-1-carboxamide] | 36 nM | –
16 | CC(C)(C)c1cc(CNC(=O)N2CCN(c3ccc(Cl)cc3)CC2)n(-c2cccc(Cl)c2)n1 [Example 53, N-((3-tert-butyl-1-(3-chlorophenyl)-1H-pyrazol-5-yl)methyl)-4-(4-chlorophenyl)piperazine-1-carboxamide] | 42 nM | –
17 | O=C(NCc1cc(C(F)(F)F)nn1-c1cccc(Cl)c1)N1CCN(c2ccc(Cl)cc2)CC1 [Example 54, 4-(4-chlorophenyl)-N-((1-(3-chlorophenyl)-3-(trifluoromethyl)-1H-pyrazol-5-yl)methyl)piperazine-1-carboxamide] | 56 nM | –
18 | O=C(NCc1cc(C(F)(F)F)nn1-c1cccc(Cl)c1)N1CCN(c2ncccc2C(F)(F)F)CC1 [Example 56, N-((1-(3-chlorophenyl)-3-(trifluoromethyl)-1H-pyrazol-5-yl)methyl)-4-(3-(trifluoromethyl)pyridin-2-yl)piperazine-1-carboxamide] | 4 nM | –
19 | N-((1-(3-chlorophenyl)-3-(trifluoromethyl)-1H-pyrazol-5-yl)methyl)-4-(1-(4-fluorophenyl)ethyl)piperazine-1-carboxamide [Example 22] | 41 nM | –
